Molecules are shown by their SMILES. Entries after “also recorded” stand apart in the source; their conditions may differ.

One data set concerns glioma. In words: Gamma images - tumor imaging in glioma-bearing mice. As to conditions: 24 hr after i.p. injection. The class given is in vivo. From the text: The 2- to 3-week-old glioma-bearing mice (tumor size: 1.0-1.5 cm) were given injections of ^111 In-BLMC, ^67 Ga-citrate, or ^111 In-BLM into the orbital sinus (or by ip injection). Images were taken with a gamma camera (Raytheon) immediately, 1, 2, 4, 24, and 48 hr after injection by using a pinhole collimator (1/4 inch diameter), with the distance of 12 cm between mouse and collimator. ^111 In-BLM, and ^111 In-BLMC were obtained according to Examples II and III; ^67 Ga-citrate was commercially obtained from New England Nuclear (NEN), Boston, Mass.

The next data set deals with Glioma 26. Kind of data set: Control experiment with cold InCl3, intratumor. The class given is in vivo, C57 BL/6 mice. As to conditions: for Host weight / Tumor size: cold, i.t. Here is the method:
Two control experiments were made with cold InCl3 (InCl3 that had been stored for 4 weeks and was practically nonradioactive, pH=1-3) and cold In-BLMC (prepared with nonradioactive InCl3 by the same method as that used for ^111 In-BLMC, final pH=1.5-3.0). At a tumor age of 6 days, ip injections were given daily for 3 days: Group VII (n=5)--0.2 ml of 0.9% NaCl; Group VIII (n=5)--In-BLMC carried by 0.004 mg BLM/g tumor weight in 0.2 ml of 0.9% NaCl. At a tumor age of 13 days, single doses were given it: Group IX (n=2)--0.7 ml of 0.9% NaCl/g tumor weight; Group X (n=3)--InCl, 0.7 ml/g tumor weight.
The tumor size (product of the three dimensions in mm^3) and body weight were measured daily for 16 days following the first injection. Host weight was obtained by subtracting tumor weight from body weight, where tumor weight (g)=tumor size (d1 d2 d3, mm^3)×0.00053

A short description of data set [1]: Whole body activity retained / excretion in normal mice. As to conditions: ip. It counts as in vivo, C57BL/6 mice. Here is the method:
Male 6-week-old C57BL/6 untreated, not tumor-bearing, mice were given intraperitoneal (ip) injectons of 30-40 μCi of ^111 InCl3, ^111 In-BLM-B2, ^111 In-BLM, ^111 In-BLMC or ^57 Co-BLM. At 1, 2, 4, 24, 48, and 72 hr after injection of the radiopharmaceutical, the animal was made to urinate and then the whole body activity was measured in a dose calibrator (FIG. 8).

The test system of the next data set is serum transferrin. Kind of data set: Binding to serum transferrin, in vitro mixtures with plasma (gel electrophoresis). The arrangement: species or system mice. As to the method:
Solutions of ^111 In-BLM, ^111 In-BLM-B2, ^111 -In-BLM-A2, ^111 In-BLMC and ^57 Co-BLM were analyzed by TLC using 10% ammonium acetate-methanol (1:1 v/v) as the eluant. After applying 0.2 μl of the samples, cold air was blown over the plate for 1-2 minutes. The plate was placed in a TLC cylinder containing freshly prepared eluant and the cylinder immediately covered with a glass plate. All cylinders were enclosed in a sealed plastic bag together with an open beaker containing eluant in order to maintain a saturated atmosphere. One to three, 48-hour urine samples from normal or gliomabearing mice given injections of ^111 In-BLM or one of its fractions were also analyzed by this TLC procedure. The same urine samples were also analyzed by gel electrophoresis on 5% agarose (Sigma or BRL low EEO) (Hoch, et al Anal Biochem. 78: 312-317, 1977). The aqueous gel was equilibrated against Co2 -saturated 0.02M NaHCO3 and the electrode chambers contained CO2 -saturated 0.1M NaHCO3. […] In vitro mixtures of 5 parts urine from untreated mice and 1 part of solution of ^111 In-BLM or its fraction were similarly analyzed immediately after mixing. […] The same gel electrophoresis procedure was used for ^111 In-BLM, ^111 In-BLMC, ^111 In-BLM-A2, ^111 In-BLM-B2 and ^57 Co-BLM; the dried plates were autoradiographed or analyzed with radiochromatogram scanner. […]

For the molecule `O=C([O-])CC(O)(CC(=O)[O-])C(=O)[O-].[67Ga+3]` [^67 Ga-citrate], in the data set on glioma, the “Accumulation of radioactivity in tumor (gamma images)” value is “higher for ^111 In-BLMC (FIG. 9e) than that for ^67 Ga-citrate (FIG. 9d)”; the “Activity in liver and background (gamma images)” value is “lower for ^111 In-BLMC than those for ^67 Ga-citrate or ^111 In-BLM”.
Turning to `[Cl][In]([Cl])[Cl]` [InCl3], the “Tumor size vs NaCl, comparison” value in the data set on Glioma 26 (cold InCl3 i.t.) was “did not affect glioma; also recorded: the tumor sizes increased and were similar”. The Host weight with Glioma 26 (day 0 after therapy) was determined as 20.3 ± 2.5 g; in the data set on Glioma 26 (day 1 after therapy), 20.4 ± 1.6 g; in the data set with Glioma 26 (day 2 after therapy), 20.0 ± 1.6 g; in the data set with Glioma 26 (day 3 after therapy), 20.0 ± 1.5 g; in the data set on Glioma 26 (day 4 after therapy), 20.0 ± 1.5 g; in the data set on Glioma 26 (day 5 after therapy), 19.9 ± 1.6 g. The Host weight in the data set on Glioma 26 (day 6 after therapy) stood at 17.9 ± 1.9 g; in the data set with Glioma 26 (day 7 after therapy), 18.8 ± 2.9 g; with Glioma 26 (day 8 after therapy), 19.1 ± 2.4 g; in the data set on Glioma 26 (day 9 after therapy), 20.3 ± 3.8 g. Further, the Tumor size amounted to 1238 ± 711 mm^3 in the data set on Glioma 26 (day 0 after therapy); 1741 ± 701 mm^3 in the data set with Glioma 26 (day 1 after therapy); 1998 ± 559 mm^3 in the data set with Glioma 26 (day 2 after therapy); 2496 ± 395 mm^3 with Glioma 26 (day 3 after therapy); 2720 ± 503 mm^3 in the data set on Glioma 26 (day 4 after therapy); 3333 ± 276 mm^3 with Glioma 26 (day 5 after therapy). Also, the Tumor size in the data set with Glioma 26 (day 6 after therapy) was found to be 3882 ± 501 mm^3; with Glioma 26 (day 7 after therapy) it was 5015 ± 936 mm^3; in the data set on Glioma 26 (day 8 after therapy) it was 5234 ± 1146 mm^3; in the data set with Glioma 26 (day 9 after therapy) it was 5988 ± 492 mm^3.
With `[Cl][111In]([Cl])[Cl]` [^111 InCl3], in data set [1], the “Rate of excretion (from percent activity retained)” value was “rate of excretion increased in the following order, reflecting descreasing binding capacity for transferrin: ^111 InCl3, ^111 In-BLM-B2, ^111 In-BLM, ^57 Co-BLM, ^111 In-BLMC”. In addition, the Binding to transferrin result in the data set on serum transferrin is “binds to serum transferrin in vitro”.
